pIC50: −log10 of the molar value. In brackets after ≈: the same amount, converted by molar mass. Entries after “also recorded” stand apart in the source; their conditions may differ.
How the values were obtained:
HT22 cells = assay: HT22 cell culture assay, glutamate-induced cell death; type: cell-based, mouse
[1] = Aqueous kinetic solubility in PBS buffer; type: physicochemical; conditions: pH 7.4
[2] = Microsomal stability, rat; type: in vitro ADME; conditions: rat liver microsomes, in the presence of NADPH
[3] = Microsomal stability, mouse; type: in vitro ADME; conditions: mouse liver microsomes, in the presence of NADPH
[4] = Stability in aqueous solutions; type: physicochemical; conditions: pH 2, pH 7.4, pH 9
[5] = target: T1, human platelet 12-lipoxygenase (12-LOX) (Homo sapiens, UniProt P18054); assay: Lipoxygenase UV-Vis assay, 12-LOX selectivity
T1 sequence (P18054 1-663): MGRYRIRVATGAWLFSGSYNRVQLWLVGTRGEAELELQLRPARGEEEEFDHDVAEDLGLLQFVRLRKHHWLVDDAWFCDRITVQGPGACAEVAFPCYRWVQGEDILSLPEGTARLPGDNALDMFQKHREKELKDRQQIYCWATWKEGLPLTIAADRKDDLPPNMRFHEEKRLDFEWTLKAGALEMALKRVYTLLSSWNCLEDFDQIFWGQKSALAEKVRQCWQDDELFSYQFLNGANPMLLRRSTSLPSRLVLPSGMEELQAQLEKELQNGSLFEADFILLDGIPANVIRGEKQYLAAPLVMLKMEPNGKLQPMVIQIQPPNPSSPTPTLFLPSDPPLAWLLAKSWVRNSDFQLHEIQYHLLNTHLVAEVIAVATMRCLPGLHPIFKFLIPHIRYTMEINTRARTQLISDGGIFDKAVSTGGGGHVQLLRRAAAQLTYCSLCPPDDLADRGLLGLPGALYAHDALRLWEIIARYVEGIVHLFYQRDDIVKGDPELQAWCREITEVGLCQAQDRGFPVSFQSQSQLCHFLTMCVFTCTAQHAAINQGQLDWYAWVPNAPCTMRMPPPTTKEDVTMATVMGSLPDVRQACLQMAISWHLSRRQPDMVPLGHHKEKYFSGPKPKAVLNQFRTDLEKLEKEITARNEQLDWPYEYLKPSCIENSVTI

human 12/15-LOX = conditions: read-out: 12/15-LOX IC50; cited from earlier work

## CNc1oc(-c2cccc3ccccc23)nc1C#N [Compound 1, 5-(Methylamino)-2-(naphthalen-1-yl)oxazole-4-carbonitrile]
HT22 cells; HT22 cells, 5 mM glutamate, increasing amounts of compound
  protection against oxidative glutamate toxicity: protective; also recorded: dose-dependent protection
[1]
  solubility kinetic: 1.2 µM (≈ 0.299 µg/mL)
[2]
  Microsomal Stability T1/2: 18 (rat) min
[3]
  Microsomal Stability T1/2: 5.5 (mouse) min
[4]
  stability in aqueous solutions: stable

## CNc1sc(-c2cccc3ccccc23)nc1C#N [Compound 32, 5-(methylamino)-2-(naphthalen-1-yl)thiazole-4-carbonitrile]
[5]
  pIC50: < 4.30

## CNc1nc(C#N)c(-c2cccc3ccccc23)o1 [Compound 34]
HT22 cells; 5 μM concentration, glutamate-treated
  cellular protection in HT22 cells: did not protect; also recorded: does not protect

## O=c1cc(-c2ccccc2)oc2cc(O)c(O)c(O)c12 [baicalein]
Human 12/15-LOX
  pIC50: 5.80

## C[C@H]1[C@H](C)CC[C@]2(C)CC[C@]3(C)C(=CC[C@@H]4[C@@]5(C)CC[C@@H](O)[C@](C)(C(=O)O)[C@@H]5CC[C@]43C)[C@H]12 [boswellic acid]
Human 12/15-LOX
  pIC50: 6.00

— article PMC4033661 (Journal of medicinal chemistry, 2014)
